Measurements published in patent US6987093B2 (priority 2001, dated 2006).
Converted amounts (≈) assume the structure as drawn. “And” between values parts separate entries of the source, which are not always exact repeats. Equal values may be shown once. Read-outs that look alike come from different tables or passages of the source.

Assays:
[1] = Azithromycin serum pharmacokinetics in mice; assay type: in vivo, mouse; details: for Cmax / Tmax / AUC(0-t): female, CF-1, mouse, Serum PK, total dose 100 mg/kg oral; for AUC(0-t): read-out: AUC(0-tlast)
Description: Blood and pulmonary tissue samples were taken starting at 0.5 h post-dose and at predetermined intervals over a 96 h period. […] […] The lower limit of quantification (LLOQ) was 50 ng/ml. […] Interassay variability was <7%. Pharmacokinetic parameters were calculated using the non-compartmental method by WinNonlin 2.1 (Scientific Consulting, Inc.).

S. pneumoniae = assay: Study 95-001 otitis media, S. pneumoniae as baseline pathogen; assay type: in vivo, human; details: five patients in azithromycin regimens with S. pneumoniae isolates with intermediate resistance
Description: (§1) Specimens for culture and susceptibility testing were obtained from the infected ear by tympanocentesis within 24 h of start of therapy. […] However, the study was evaluated using the breakpoints in the most recent set of guidelines.
To be a bacteriological cure, the MITT subject had to have a positive culture from the middle ear for S. pneumoniae, H influenzae, or M. catarrhalis. Eradication was defined as presumed eradication of pretreatment pathogen(s) based on signs/symptoms or unavailability of culturable material. All evaluable patients had only one of the bacterial species present at baseline. There was no bacteriological response data collected for 95–001. However, the clinical outcome by bacterial pathogen at follow-up (approximately 28 days after first visit) was collected. For patients with S. pneumoniae as the baseline pathogen, all treatment arms yielded 100% clinical cure when the investigators' evaluations that were missing are not included in the analysis. […] The comparator drug, ceftriaxone, had no failures out of 9 patients.

Chlamydia trachomatis = details: azithromycin (± an anti-inflammatory agent); cited from earlier work
S. pneumoniae isolates = assay: Susceptibility (MIC) testing of trial S. pneumoniae isolates with PCR of resistance mechanism; assay type: cell-based, Streptococcus pneumoniae; details: Streptococcus pneumoniae
Text: (§2) Samples of middle ear fluid were split for storage at a central laboratory and cultured locally. All pathogens isolated locally were subcultured and sent to a central laboratory for confirmation and susceptibility testing, performed by Kirby-Bauer disk-diffusion or MIC testing according to NCCLS standards.
Polymerase chain reaction (PCR) determination of resistance mechanisms in all the azithromycin-resistant pneumococci was done.
(§3) Cultures were taken for antimicrobial susceptibility testing and bacterial species were identified. Current NCCLS approved breakpoints for MICs and zone sizes were applied to all data irrespective of the breakpoint in use at the time of the study. The isolates from the clinical studies were sent to central laboratories for identification and susceptibility determination. The methods for agar diffusion disk tests are those recommended by NCCLS.
(§4) The susceptibility breakpoints for azithromycin were defined as follows: […]

[2] = system: Haemophilus influenzae 54A1218; assay: Gerbil middle ear (otitis media) infection model, ED50, H. influenzae 54A1218; assay type: in vivo; details: for ED50: past studies
pneumococcal challenge = details: single dose compared with all the other dose regimens; cited from earlier work
M. catarrhalis = assay: Susceptibility testing of trial M. catarrhalis isolates; assay type: cell-based, Moraxella catarrhalis; details: NCCLS criteria
Text: as §2, §3, §4

H. influenzae 54A1100 = assay: MIC determination, H. influenzae 54A1100; assay type: cell-based, Haemophilus influenzae; details: Haemophilus influenzae
Description: MIC Determinations. Streptococcus pneumoniae, S. pyogenes, E. faecalis, and H. influenzae MICs were determined using the broth microdilution procedure recommended by the NCCLS. Test trays were incubated at 35C without carbon dioxide. For testing of streptococci, the cation-adjusted Mueller-Hinton broth was supplemented with 2–3% lysed horse blood. For testing H. influenzae, freshly prepared Haemophilus Test Medium broth was used.
Bacterial Strains. • S. pneumoniae 02J1016, serotype 3, originally isolated from blood culture (strain P 4241) (MLS- and penicillin-susceptible). • S. pyogenes 02C0203, ATCC 12384, group A, type 3 (MLS-susceptible). • E. faecalis 03A1085, vancomycin susceptible clinically derived strain. • H. influenzae 54A1100, (43095 ATCC Fulghum strain) non-serotype B strain originally isolated from otitis media (macrolide and penicillin susceptible). • H. influenzae 54A1218, clinically derived non-serotype B strain (macrolide-susceptible, penicillin-resistant, TEM-1 beta-lactamase).

[3] = system: Streptococcus pyogenes 02C0203; assay: Murine acute infection (peritonitis) model challenged with Streptococcus pyogenes; assay type: in vivo, mouse
[4] = Azithromycin pulmonary tissue pharmacokinetics in mice; assay type: in vivo; details: female, CF-1, mouse, lung (pulmonary tissue), Pulmonary PK, total dose 100 mg/kg oral; for AUC(0-t): read-out: AUC(0-tlast)
Description: Blood and pulmonary tissue samples were taken starting at 0.5 h post-dose and at predetermined intervals over a 96 h period. Plasma and lung samples were prepared and maintained at −70 C. […] The lower limit of quantification (LLOQ) was 50 ng/ml. […] Interassay variability was <7%. Pharmacokinetic parameters were calculated using the non-compartmental method by WinNonlin 2.1 (Scientific Consulting, Inc.).

H. influenzae = assay: Study 95-001 Kirby-Bauer disk diffusion susceptibility, H. influenzae; assay type: cell-based, Haemophilus influenzae; details: all H. influenzae organisms isolated
Description: as §1

[5] = system: Haemophilus influenzae 54A1100; assay: Murine acute infection (peritonitis) model challenged with Haemophilus influenzae; assay type: in vivo, mouse; details: for PD50: s.c.
[6] = 33 mg/kg, 3 days of dosing, 33.3 mg/kg/dose
[7] = 1 day of dosing, 100 mg/kg/dose
[8] = 2 days of dosing, 50 mg/kg/dose
[9] = oral QD, gerbil otitis media model
[10] = oral QD, murine peritonitis model

CC[C@H]1OC(=O)[C@H](C)[C@@H](O[C@H]2C[C@@](C)(OC)[C@@H](O)[C@H](C)O2)[C@H](C)[C@@H](O[C@@H]2O[C@H](C)C[C@H](N(C)C)[C@H]2O)[C@](C)(O)C[C@@H](C)CN(C)[C@H](C)[C@@H](O)[C@]1(C)O [Azithromycin, 9a-aza-9a-methyl-9-deoxo-9a-homoerythromycin A]
Cmax, single dose vs. the same total dose administered over 3 days ([1]; better when administered as a single dose): 3 fold | Cmax [1, 6]: 980 ng/mL | Tmax [1, 6]: 26 h | AUC(0-t) [1, 6]: 19.8 µg·h/mL | Cmax [1, 7]: 2100 ng/mL | Tmax [1, 7]: 2 h | AUC(0-t) [1, 7]: 18.8 µg·h/mL | Cmax [1, 8]: 1300 ng/mL | Tmax [1, 8]: 26 h | AUC(0-t) [1, 8]: 15.9 µg·h/mL | clinical outcomes at EOT or follow-up (S. pneumoniae): either “cure” or “improvement” | preserving fertility (Chlamydia trachomatis): superior to doxycycline and ofloxacin combinations | MIC (S. pneumoniae isolates; macrolide-resistant S. pneumoniae isolates containing the erm B gene): > 256 µg/mL | MIC (S. pneumoniae isolates; macrolide-resistant S. pneumoniae isolates containing the mef A gene): 8 µg/mL (≈ 10.7 µM) | ED50 One-Day Therapy [2, 9]: 84 mg/kg/therapy | ED50 Three-Day Therapy [2, 9]: 65 mg/kg/therapy | ED50 Two-Day Therapy [2, 9]: 53 mg/kg/therapy | ED50 ([2]; Q.D. 1): 83.8 (53.6–114.1) mg/kg/total regimen | ED50 ([2]; Q.D. 2): 53.4 (21.2–85.5) mg/kg/total regimen | ED50 ([2]; Q.D. 3): 65.2 (51–79.4) mg/kg/total regimen | survival versus a pneumococcal challenge (pneumococcal challenge): significantly increased survival | susceptibility of isolated M. catarrhalis to azithromycin (M. catarrhalis): susceptible | MIC (H. influenzae 54A1100; 54A1100, H. influenzae 54A1100): 1.56 µg/mL (≈ 2.08 µM) | MIC (H. influenzae 54A1100; H. influenzae 54A1100, read-out: MIC): 0.5 to 1 µg/mL (≈ 0.668 to 1.34 µM) | Oral PD50 ([3]; Dosing Regimen 1 day): 1.0 (0.6–1.4) mg/kg/day | Oral PD50 ([3]; Dosing Regimen 2 days): 2.5 (1.8–3.3) mg/kg/day | Oral PD50 ([3]; Dosing Regimen 3 days): 3.8 (3.8–3.9) mg/kg/day | Mice Surviving/Total ([3]; mouse, in vivo): 1/10 and 10/10 and 8/10 and 3/10 and 0/10 and 9/10 and 7/10 | ED50 One-Day Therapy [3, 10]: 0.78^1 mg/kg/therapy | ED50 Two-Day Therapy [3, 10]: 1.1 mg/kg/therapy | Cmax [4, 6]: 28000 ng/mL | Tmax [4, 6]: 12 h | AUC(0-t) [4, 6]: 1050 µg·h/mL | Cmax [4, 7]: 40000 ng/mL | Tmax [4, 7]: 4 h | AUC(0-t) [4, 7]: 970 µg·h/mL | Cmax [4, 8]: 31000 ng/mL | Tmax [4, 8]: 28 h | AUC(0-t) [4, 8]: 870 µg·h/mL | zone sizes (agar diffusion) (H. influenzae): ≥ 19 mm | susceptibility by agar diffusion (zone size) (H. influenzae; NCCLS breakpoint of ≧12 mm): susceptible | Oral PD50 ([5]; Dosing Regimen 1 day): 25.3 (14.3–36.2) mg/kg/day | Oral PD50 ([5]; Dosing Regimen 2 days): 49.9 (41.5–58.5) mg/kg/day | Oral PD50 ([5]; Dosing Regimen 3 days): 181.6 (180.1–183.1) mg/kg/day | Mice Surviving/Total ([5]; mouse, in vivo): 0/10 and 6/10 and 10/10 and 9/10 and 1/10 and 5/10 | PD50 ([5]; one therapeutic dose (one day regimen)): 25.3 mg/kg | ED50 One-Day Therapy [5, 10]: 30.3^1 mg/kg/therapy | ED50 Three-Day Therapy [5, 10]: 147 mg/kg/therapy | ED50 Two-Day Therapy [5, 10]: 48 mg/kg/therapy | PD50 ([5]; previously tested, standard dosing paradigm (b.i.d. on day 1)): 27 mg/kg
